Literature values in US20110190220A1, “Use of Defensin Alpha 1 and/or Defensin Alpha 4, as a Marker for Predicting Treatment Response and/or a Relapse in a Patient Suffering form Chronic Myeloid Leukemia” (priority 2008, published 2011).
Counter-ions that a name gives are not always drawn.

Tested on: CML patients

Cc1ccc(NC(=O)c2ccc(CN3CCN(C)CC3)cc2)cc1Nc1nccc(-c2cccnc2)n1 [Imatinib, Imatinib mesylate]
complete or nearly complete cytogenetic remission, share of patients (CML patients treated in chronic phase): up to 80% | CML patients who are or become resistant to treatment (CML patients treated with imatinib): about 20%
